Some test systems named below: A549 NSCLC; COLO 205 colon; DU-145 prostate; EKVX NSCLC; HL-60(TB) leukemia; HOP-62 NSCLC; HS 578T breast; LOX IMVI melanoma; M14 melanoma; MCF7 breast; NCI-H226 lung; NCI-H460 lung; OVCAR-3 ovarian; OVCAR-5 ovarian; OVCAR-8 ovarian; RXF 393 renal; SF-295 CNS; SN12C renal; SW-620 colon.
Holding throughout (assay): DTP human tumour cell line panel, 48 h

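Five concentrations, 48 hours, 96-well plates. TGI is the concentration that stops growth completely.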

By TGI is commonly meant the concentration at which net growth stops. A higher TGI goes with less potent growth arrest.

In the case of `CCOC(=O)c1c(NS(=O)(=O)c2ccc(Br)cc2)sc2c1CCCC2`, the TGI in the test with A549 NSCLC is 26.5 µM; in the test with COLO 205 colon, 32.1 µM; in the test with DU-145 prostate it was greater than 58 µM; in the test on EKVX NSCLC, 11 µM; with HL-60(TB) leukemia, greater than 100 µM; with HOP-62 NSCLC, 14.1 µM. In addition, the TGI with HS 578T breast is 35.5 µM; in the test with LOX IMVI melanoma, 27.3 µM; in the test on M14 melanoma, 9.92 µM; in the test with MCF7 breast, greater than 62.9 µM; in the test with NCI-H226 lung, 9.91 µM; in the test with NCI-H460 lung it was 13.9 µM. Also, the concentration for total growth inhibition (TGI) in the test with OVCAR-3 ovarian was found to be 9.9 µM; in the test on OVCAR-5 ovarian, 18.3 µM; in the test with OVCAR-8 ovarian it was 15.3 µM; with RXF 393 renal, 6.98 µM; in the test on SF-295 CNS, 8.39 µM; in the test on SN12C renal it was 12.1 µM. The compound also yielded a concentration for total growth inhibition (TGI) in the test with SW-620 colon of 30.6 µM.
`CCOC(=O)c1c(N2CCOCC2)[nH]c(=O)c(C(c2c(O)c(C(=O)OCC)c(N3CCOCC3)[nH]c2=O)C(C)C)c1O`: the concentration for total growth inhibition (TGI) with A549 NSCLC, in the test on COLO 205 colon, with DU-145 prostate, with EKVX NSCLC, in the test on HL-60(TB) leukemia and with HOP-62 NSCLC was greater than 100 µM in each case. Further, the concentration for total growth inhibition (TGI) with HS 578T breast, in the test with LOX IMVI melanoma, in the test with M14 melanoma, with MCF7 breast, with NCI-H226 lung and with NCI-H460 lung was greater than 100 µM throughout. Further, the total growth inhibition concentration (TGI) in the test on OVCAR-3 ovarian, with OVCAR-5 ovarian, in the test with OVCAR-8 ovarian, in the test on RXF 393 renal, with SF-295 CNS and in the test with SN12C renal was greater than 100 µM throughout. The same compound had a total growth inhibition concentration (TGI) in the test with SW-620 colon greater than 100 µM.
For the compound `CCOP(=O)(OCC)/C(=C/c1ccccc1)CC(C)=O`, the TGI was greater than 100 µM with A549 NSCLC; greater than 100 µM with COLO 205 colon; greater than 100 µM with DU-145 prostate; greater than 100 µM with EKVX NSCLC; 68.7 µM with HL-60(TB) leukemia; greater than 100 µM with HOP-62 NSCLC. Besides, the TGI with HS 578T breast, with LOX IMVI melanoma, with M14 melanoma, with MCF7 breast, with NCI-H226 lung and in the test with NCI-H460 lung was greater than 100 µM in each case. Moreover, the TGI in the test with OVCAR-3 ovarian, with OVCAR-5 ovarian, with OVCAR-8 ovarian, with RXF 393 renal, in the test on SF-295 CNS and with SN12C renal was greater than 100 µM in each case. The compound further yielded a TGI in the test on SW-620 colon greater than 100 µM.
For the compound `CN(C)c1ccc(/C=C2\C[C@H]3[C@@H]4CCC5=CC(=O)CC[C@]5(C)[C@H]4CC[C@]3(C)C2=O)cc1`, the TGI is greater than 100 µM with A549 NSCLC; 64.8 µM in the test with COLO 205 colon; greater than 100 µM with DU-145 prostate; greater than 100 µM in the test with EKVX NSCLC; greater than 100 µM in the test with HL-60(TB) leukemia; greater than 100 µM in the test on HOP-62 NSCLC. Moreover, the total growth inhibition concentration (TGI) is greater than 100 µM with HS 578T breast; 41.7 µM with LOX IMVI melanoma; greater than 100 µM in the test on M14 melanoma; greater than 100 µM in the test with MCF7 breast; greater than 100 µM in the test with NCI-H226 lung; 51.1 µM in the test on NCI-H460 lung. For the same compound, the TGI with OVCAR-3 ovarian, in the test on OVCAR-5 ovarian, in the test on OVCAR-8 ovarian, in the test on RXF 393 renal, in the test with SF-295 CNS and in the test with SN12C renal was greater than 100 µM throughout. This compound showed a TGI in the test with SW-620 colon greater than 100 µM.
In the case of `O=[N+]([O-])c1nccn1CCCN=c1c2ccccc2n(O)c2ccccc12`, the TGI in the test with A549 NSCLC was greater than 100 µM; in the test on COLO 205 colon, 55.6 µM; with DU-145 prostate, greater than 100 µM; with EKVX NSCLC, greater than 100 µM; in the test with HL-60(TB) leukemia, greater than 100 µM; in the test with HOP-62 NSCLC, greater than 100 µM. Moreover, the TGI in the test on HS 578T breast, in the test on LOX IMVI melanoma, in the test on M14 melanoma, with MCF7 breast, in the test with NCI-H226 lung and in the test on NCI-H460 lung was greater than 100 µM throughout. Further, the total growth inhibition concentration (TGI) in the test on OVCAR-3 ovarian, in the test on OVCAR-5 ovarian, in the test with OVCAR-8 ovarian, in the test on RXF 393 renal, in the test with SF-295 CNS and in the test with SN12C renal was greater than 100 µM each time. In addition, in the test with SW-620 colon, the TGI was greater than 100 µM.
As to `Nc1ccc(S(=O)(=O)Nc2nc3ccccc3nc2Nc2ccc(S(N)(=O)=O)cc2)cc1`, the TGI in the test with A549 NSCLC was greater than 100 µM; in the test on COLO 205 colon, greater than 100 µM; in the test with DU-145 prostate, greater than 100 µM; in the test with EKVX NSCLC it was greater than 100 µM; in the test with HL-60(TB) leukemia, 63.2 µM; in the test with HOP-62 NSCLC, greater than 100 µM. In addition, the total growth inhibition concentration (TGI) with HS 578T breast is greater than 100 µM; in the test with LOX IMVI melanoma, 38.3 µM; with M14 melanoma, greater than 100 µM; in the test with MCF7 breast, greater than 100 µM; with NCI-H226 lung, greater than 100 µM; in the test on NCI-H460 lung, greater than 100 µM. In addition, the TGI with OVCAR-3 ovarian is greater than 100 µM; in the test with OVCAR-5 ovarian, greater than 100 µM; with OVCAR-8 ovarian, greater than 100 µM; in the test on RXF 393 renal it was 62 µM; in the test on SF-295 CNS, 72.1 µM; with SN12C renal, greater than 100 µM. Moreover, the total growth inhibition concentration (TGI) with SW-620 colon is greater than 100 µM.
Regarding `COc1ccc(Cc2cc(OC)c(OC)c(OC)c2)cc1O`, the total growth inhibition concentration (TGI) with A549 NSCLC was greater than 100 µM; with COLO 205 colon, greater than 57.1 µM; with DU-145 prostate, greater than 100 µM; in the test on EKVX NSCLC it was greater than 100 µM; with HL-60(TB) leukemia, greater than 26.6 µM; with HOP-62 NSCLC, greater than 49.6 µM. The TGI with HS 578T breast was greater than 100 µM; in the test on LOX IMVI melanoma it was greater than 100 µM; with M14 melanoma it was greater than 100 µM; in the test on MCF7 breast, greater than 100 µM; in the test on NCI-H226 lung, 99.4 µM; in the test with NCI-H460 lung it was greater than 100 µM. For the same compound, the total growth inhibition concentration (TGI) in the test with OVCAR-3 ovarian, in the test with OVCAR-5 ovarian, with OVCAR-8 ovarian, with RXF 393 renal, in the test with SF-295 CNS and in the test on SN12C renal was greater than 100 µM each time. For the same compound, the TGI with SW-620 colon is greater than 100 µM.

(Values after PubChem BioAssay (NCI).)
